Source: paper PMC3973950, “Synthesis of 5-arylidine amino-1,3,4-thiadiazol-2-[(N-substituted benzyol)]sulphonamides endowed with potent antioxidants and anticancer activity induces growth inhibition in HEK293, BT474 and NCI-H226 cells” (Medicinal Chemistry Research, 2013)

System: not listed separately
Assay: In vitro cytotoxicity by MTT assay, HEK 293
Assay type: cell-based, human
Details: human, HEK 293 cells, 0.005 μM, read-out: % cytotoxicity (100 − % cell survival) of HEK 293 cell line
How it was run: (§1)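 After 72 h of compound exposure at 37 °C in 5 % CO2, MTT was added for 4 h and the propanol-solubilised formazan was read at 490 nm. Monolayers (~10,000 cells/well, RPMI-1640 plus 10 % newborn calf serum) had been allowed to form for 24 h beforehand.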

| Compound | cytotoxicity at 72 h, 0.005 µM |
| --- | --- |
| Nc1ccc(S(=O)(=O)Nc2nnc(S(=O)(=O)NC(=O)c3cccc([N+](=O)[O-])c3)s2)cc1 [Compound 7f] | 33.2% |

Same assay, conditions: human, HEK 293 cells, 0.015 μM, read-out: % cytotoxicity (100 − % cell survival) of HEK 293 cell line

| Compound | cytotoxicity at 72 h, 0.015 µM |
| --- | --- |
| Nc1ccc(S(=O)(=O)Nc2nnc(S(=O)(=O)NC(=O)c3cccc([N+](=O)[O-])c3)s2)cc1 [Compound 7f] | 35.1% |

Same assay, conditions: human, HEK 293 cells, 0.045 μM, read-out: % cytotoxicity (100 − % cell survival) of HEK 293 cell line

| Compound | cytotoxicity at 72 h, 0.045 µM |
| --- | --- |
| Nc1ccc(S(=O)(=O)Nc2nnc(S(=O)(=O)NC(=O)c3cccc([N+](=O)[O-])c3)s2)cc1 [Compound 7f] | 36% |

Same assay, conditions: human, HEK 293 cells, 0.13 μM, read-out: % cytotoxicity (100 − % cell survival) of HEK 293 cell line

| Compound | cytotoxicity at 72 h, 0.13 µM |
| --- | --- |
| Nc1ccc(S(=O)(=O)Nc2nnc(S(=O)(=O)NC(=O)c3cccc([N+](=O)[O-])c3)s2)cc1 [Compound 7f] | 37% |

Same assay, conditions: human, HEK 293 cells, 0.41 μM, read-out: % cytotoxicity (100 − % cell survival) of HEK 293 cell line

| Compound | cytotoxicity at 72 h, 0.41 µM |
| --- | --- |
| Nc1ccc(S(=O)(=O)Nc2nnc(S(=O)(=O)NC(=O)c3cccc([N+](=O)[O-])c3)s2)cc1 [Compound 7f] | 37.5% |

Same assay, conditions: human, HEK 293 cells, 1.23 μM, read-out: % cytotoxicity (100 − % cell survival) of HEK 293 cell line

| Compound | cytotoxicity at 72 h, 1.23 µM |
| --- | --- |
| Nc1ccc(S(=O)(=O)Nc2nnc(S(=O)(=O)NC(=O)c3cccc([N+](=O)[O-])c3)s2)cc1 [Compound 7f] | 38.7% |

Same assay, conditions: human, HEK 293 cells, 3.7 μM, read-out: % cytotoxicity (100 − % cell survival) of HEK 293 cell line

| Compound | cytotoxicity at 72 h, 3.7 µM |
| --- | --- |
| Nc1ccc(S(=O)(=O)Nc2nnc(S(=O)(=O)NC(=O)c3cccc([N+](=O)[O-])c3)s2)cc1 [Compound 7f] | 39.5% |

Same assay, conditions: human, HEK 293 cells, 11.11 μM, read-out: % cytotoxicity (100 − % cell survival) of HEK 293 cell line

| Compound | cytotoxicity at 72 h, 11.11 µM |
| --- | --- |
| Nc1ccc(S(=O)(=O)Nc2nnc(S(=O)(=O)NC(=O)c3cccc([N+](=O)[O-])c3)s2)cc1 [Compound 7f] | 40.6% |

Same assay, conditions: human, HEK 293 cells, 33.33 μM, read-out: % cytotoxicity (100 − % cell survival) of HEK 293 cell line

| Compound | cytotoxicity at 72 h, 33.33 µM |
| --- | --- |
| Nc1ccc(S(=O)(=O)Nc2nnc(S(=O)(=O)NC(=O)c3cccc([N+](=O)[O-])c3)s2)cc1 [Compound 7f] | 41.2% |

Same assay, conditions: human, HEK 293 cells, 100 μM, read-out: % cytotoxicity (100 − % cell survival) of HEK 293 cell line

| Compound | cytotoxicity at 72 h, 100 µM |
| --- | --- |
| Nc1ccc(S(=O)(=O)Nc2nnc(S(=O)(=O)NC(=O)c3cccc([N+](=O)[O-])c3)s2)cc1 [Compound 7f] | 43.8% |

System: BT474 (breast cancer cell line)
Assay: In vitro cytotoxicity by MTT assay, BT474
Assay type: cell-based
Details: Homo sapiens, BT-474, 0.005 μM, 72 h, read-out: % cytotoxicity (100 − % cell survival) of BT474 cell line
How it was run: as §1

| Compound | cytotoxicity at 0.005 µM |
| --- | --- |
| Nc1ccc(S(=O)(=O)Nc2nnc(S(=O)(=O)NC(=O)c3cccc([N+](=O)[O-])c3)s2)cc1 [Compound 7f] | 42.4% |

Same assay, conditions: Homo sapiens, BT-474, 0.015 μM, 72 h, read-out: % cytotoxicity (100 − % cell survival) of BT474 cell line

| Compound | cytotoxicity at 0.015 µM |
| --- | --- |
| Nc1ccc(S(=O)(=O)Nc2nnc(S(=O)(=O)NC(=O)c3cccc([N+](=O)[O-])c3)s2)cc1 [Compound 7f] | 45.8% |

Same assay, conditions: Homo sapiens, BT-474, 0.045 μM, 72 h, read-out: % cytotoxicity (100 − % cell survival) of BT474 cell line

| Compound | cytotoxicity at 0.045 µM |
| --- | --- |
| Nc1ccc(S(=O)(=O)Nc2nnc(S(=O)(=O)NC(=O)c3cccc([N+](=O)[O-])c3)s2)cc1 [Compound 7f] | 47.2% |

Same assay, conditions: Homo sapiens, BT-474, 0.13 μM, 72 h, read-out: % cytotoxicity (100 − % cell survival) of BT474 cell line

| Compound | cytotoxicity at 0.13 µM |
| --- | --- |
| Nc1ccc(S(=O)(=O)Nc2nnc(S(=O)(=O)NC(=O)c3cccc([N+](=O)[O-])c3)s2)cc1 [Compound 7f] | 50.1% |

Same assay, conditions: Homo sapiens, BT-474, 0.41 μM, 72 h, read-out: % cytotoxicity (100 − % cell survival) of BT474 cell line

| Compound | cytotoxicity at 0.41 µM |
| --- | --- |
| Nc1ccc(S(=O)(=O)Nc2nnc(S(=O)(=O)NC(=O)c3cccc([N+](=O)[O-])c3)s2)cc1 [Compound 7f] | 52.2% |

Same assay, conditions: Homo sapiens, BT-474, 1.23 μM, 72 h, read-out: % cytotoxicity (100 − % cell survival) of BT474 cell line

| Compound | cytotoxicity at 1.23 µM |
| --- | --- |
| Nc1ccc(S(=O)(=O)Nc2nnc(S(=O)(=O)NC(=O)c3cccc([N+](=O)[O-])c3)s2)cc1 [Compound 7f] | 54.2% |

Same assay, conditions: Homo sapiens, BT-474, 3.7 μM, 72 h, read-out: % cytotoxicity (100 − % cell survival) of BT474 cell line

| Compound | cytotoxicity at 3.7 µM |
| --- | --- |
| Nc1ccc(S(=O)(=O)Nc2nnc(S(=O)(=O)NC(=O)c3cccc([N+](=O)[O-])c3)s2)cc1 [Compound 7f] | 56.7% |

Same assay, conditions: Homo sapiens, BT-474, 11.11 μM, 72 h, read-out: % cytotoxicity (100 − % cell survival) of BT474 cell line

| Compound | cytotoxicity at 11.11 µM |
| --- | --- |
| Nc1ccc(S(=O)(=O)Nc2nnc(S(=O)(=O)NC(=O)c3cccc([N+](=O)[O-])c3)s2)cc1 [Compound 7f] | 58.6% |

Same assay, conditions: Homo sapiens, BT-474, 33.33 μM, 72 h, read-out: % cytotoxicity (100 − % cell survival) of BT474 cell line

| Compound | cytotoxicity at 33.33 µM |
| --- | --- |
| Nc1ccc(S(=O)(=O)Nc2nnc(S(=O)(=O)NC(=O)c3cccc([N+](=O)[O-])c3)s2)cc1 [Compound 7f] | 60.3% |

Same assay, conditions: Homo sapiens, BT-474, 100 μM, 72 h, read-out: % cytotoxicity (100 − % cell survival) of BT474 cell line

| Compound | cytotoxicity at 100 µM |
| --- | --- |
| Nc1ccc(S(=O)(=O)Nc2nnc(S(=O)(=O)NC(=O)c3cccc([N+](=O)[O-])c3)s2)cc1 [Compound 7f] | 64.1% |

System: HEK 293, M468 and NCI-H226
Assay: In vitro cytotoxicity by MTT assay, summary over all cell lines
Assay type: cell-based
Details: on all cell lines
Protocol: The cancer cell line cultures of HEK 293 ([…]), BT474 (breast cancer cell line) and NCI-H226 (lung cancer) were obtained from Pasteur Institute of India, Coonoor, India, and were cultured in RPMI-1640 and 10 % heat-[…] New born calf serum with antibiotics [penicillin ([…]), streptomycin (100 μg/mL) and amphotericin B (25 μg/mL)]. The cells were maintained at 37 °C in a humidified atmosphere with 5 % CO2 and were subcultured twice a week.
The monolayer cell culture (100 μL) was trypsinized, and the cell count was adjusted to […] using medium containing 10 % new born calf serum. To each well of the 96-well microtitre plate, the diluted cell suspension (approximately 10,000 cells) (0.1 mL) was added and kept for 24 h in incubator at 37 °C in 5 % CO2 atmosphere for cell monolayer formation. After 24 h, when a partial monolayer was formed at the bottom of the well, the supernatant was flicked off, the monolayer was washed once, and different drugs, i.e. synthesized compounds (100 μL), were added to the cells in microtitre plates. The plates were then incubated at 37 °C for 3 days in 5 % CO2 atmosphere, and microscopic examination was carried out and observations recorded every 24 h. After 72 h, the sample solution in the wells was flicked off; MTT dye ([…]) was added to each well; plates were gently shaken and incubated for 4 h at 37 °C in 5 % CO2 incubator. The supernatant was removed and propanol (50 μL) was added; the plates were gently shaken to solubilize the formed formazan. The absorbance was measured using a microplate reader at a wavelength of 490 nm (Edmondson et al., [1988]; Prasad et al., [2005]; Chiruvella et al., [2008]; Chang et al., [2007]).

| Compound | cytotoxic activity compared with all synthesized compounds |
| --- | --- |
| Nc1ccc(S(=O)(=O)Nc2nnc(S(=O)(=O)NC(=O)c3cccc([N+](=O)[O-])c3)s2)cc1 [Compound 7f] | more potent |

System: NCI-H226 (lung cancer cell line)
Assay: In vitro cytotoxicity by MTT assay, NCI-H226
Assay type: cell-based
Details: Homo sapiens, NCI-H226, 0.005 μM, 72 h, read-out: % Cytotoxicity (100 − % cell survival) of NCI-H226 cell line
How it was run: as §1

| Compound | cytotoxicity at 0.005 µM |
| --- | --- |
| Nc1ccc(S(=O)(=O)Nc2nnc(S(=O)(=O)NC(=O)c3cccc([N+](=O)[O-])c3)s2)cc1 [Compound 7f] | 38.8% |

Same assay, conditions: Homo sapiens, NCI-H226, 0.045 μM, 72 h, read-out: % Cytotoxicity (100 − % cell survival) of NCI-H226 cell line

| Compound | cytotoxicity at 0.045 µM |
| --- | --- |
| Nc1ccc(S(=O)(=O)Nc2nnc(S(=O)(=O)NC(=O)c3cccc([N+](=O)[O-])c3)s2)cc1 [Compound 7f] | 40.1% |

Same assay, conditions: Homo sapiens, NCI-H226, 0.13 μM, 72 h, read-out: % Cytotoxicity (100 − % cell survival) of NCI-H226 cell line

| Compound | cytotoxicity at 0.13 µM |
| --- | --- |
| Nc1ccc(S(=O)(=O)Nc2nnc(S(=O)(=O)NC(=O)c3cccc([N+](=O)[O-])c3)s2)cc1 [Compound 7f] | 42.6% |

Same assay, conditions: Homo sapiens, NCI-H226, 0.41 μM, 72 h, read-out: % Cytotoxicity (100 − % cell survival) of NCI-H226 cell line

| Compound | cytotoxicity at 0.41 µM |
| --- | --- |
| Nc1ccc(S(=O)(=O)Nc2nnc(S(=O)(=O)NC(=O)c3cccc([N+](=O)[O-])c3)s2)cc1 [Compound 7f] | 46.1% |

Same assay, conditions: Homo sapiens, NCI-H226, 1.23 μM, 72 h, read-out: % Cytotoxicity (100 − % cell survival) of NCI-H226 cell line

| Compound | cytotoxicity at 1.23 µM |
| --- | --- |
| Nc1ccc(S(=O)(=O)Nc2nnc(S(=O)(=O)NC(=O)c3cccc([N+](=O)[O-])c3)s2)cc1 [Compound 7f] | 52.1% |

Same assay, conditions: Homo sapiens, NCI-H226, 3.7 μM, 72 h, read-out: % Cytotoxicity (100 − % cell survival) of NCI-H226 cell line

| Compound | cytotoxicity at 3.7 µM |
| --- | --- |
| Nc1ccc(S(=O)(=O)Nc2nnc(S(=O)(=O)NC(=O)c3cccc([N+](=O)[O-])c3)s2)cc1 [Compound 7f] | 56.4% |

Same assay, conditions: Homo sapiens, NCI-H226, 11.11 μM, 72 h, read-out: % Cytotoxicity (100 − % cell survival) of NCI-H226 cell line

| Compound | cytotoxicity at 11.11 µM |
| --- | --- |
| Nc1ccc(S(=O)(=O)Nc2nnc(S(=O)(=O)NC(=O)c3cccc([N+](=O)[O-])c3)s2)cc1 [Compound 7f] | 60.7% |

Same assay, conditions: Homo sapiens, NCI-H226, 33.33 μM, 72 h, read-out: % Cytotoxicity (100 − % cell survival) of NCI-H226 cell line

| Compound | cytotoxicity at 33.33 µM |
| --- | --- |
| Nc1ccc(S(=O)(=O)Nc2nnc(S(=O)(=O)NC(=O)c3cccc([N+](=O)[O-])c3)s2)cc1 [Compound 7f] | 65.8% |

Same assay, conditions: Homo sapiens, NCI-H226, 100 μM, 72 h, read-out: % Cytotoxicity (100 − % cell survival) of NCI-H226 cell line

| Compound | cytotoxicity at 100 µM |
| --- | --- |
| Nc1ccc(S(=O)(=O)Nc2nnc(S(=O)(=O)NC(=O)c3cccc([N+](=O)[O-])c3)s2)cc1 [Compound 7f] | 68% |

Same assay, conditions: Homo sapiens, NCI-H226, concentration at which 50 % of the cells are dead, 72 h, read-out: CTC50 (cytotoxicity concentration)

| Compound | CC50 |
| --- | --- |
| Nc1ccc(S(=O)(=O)Nc2nnc(S(=O)(=O)NC(=O)c3cccc([N+](=O)[O-])c3)s2)cc1 [Compound 7f] | 1780 nM |

System: not listed separately
Assay: In vitro cytotoxicity by MTT assay, NCI-H226
Assay type: cell-based
Details: human, NCI-H226 lung cancer cells, 0.015 μM, read-out: % Cytotoxicity (100 − % cell survival) of NCI-H226 cell line
How it was run: as §1

| Compound | cytotoxicity at 72 h, 0.015 µM |
| --- | --- |
| Nc1ccc(S(=O)(=O)Nc2nnc(S(=O)(=O)NC(=O)c3cccc([N+](=O)[O-])c3)s2)cc1 [Compound 7f] | 39.3% |
